In brackets after ≈: the same amount, converted by molar mass.
Tests used:
Assay in all cases: In vitro antibacterial evaluation: minimum inhibitory concentration (MIC), broth dilution method
Type in all cases: cell-based
[1] = test system: Escherichia coli; settings: 18 hours at 35° C.
Outline: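 Values are minimum inhibitory concentrations, meaning the smallest antibiotic concentration that stops growth of the organism. They come from broth dilution in Muller-Hinton II […] per NCCLS guidance (M7-A2), using 5×10^5 CFU/mL and concentrations from 64 to 0.06 μg/mL.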

[2] = test system: Staphylococcus sp.
Outline: (§1)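 An MIC is reported for each organism as the least concentration giving inhibition, using broth dilution over 64-0.06 μg/mL with a 5×10^5 CFU/mL inoculum.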

[3] = test system: Streptococcus sp.; settings: 18 hours at 35° C.
Outline: as §1

[4] = test system: Enterococcus sp.; settings: 18 hours at 35° C.
Outline: as §1

[5] = broth dilution, inoculum 5×10^5 CFU/mL

- MIC Escherichia coli (ATCC 25922) ([1]; Escherichia coli (ATCC 25922)): 64 µg/mL (≈ 44.7 µM)
- MIC Escherichia coli (GC 4559) ([1]; Escherichia coli (GC 4559)): >64 µg/mL
- MIC Escherichia coli (GC 4560) ([1]; Escherichia coli (GC 4560)): 8 µg/mL (≈ 5.59 µM)
- MIC Staphylococcus aureus (ATCC 29213) ([2]; strain ATCC 29213): 4 µg/mL (≈ 2.79 µM)
- MIC Staphylococcus aureus (GC 1131) ([2]; strain GC 1131): 8 µg/mL (≈ 5.59 µM)
- MIC Staphylococcus aureus (GC 3051) ([2]; strain GC 3051): 4 µg/mL (≈ 2.79 µM)
- MIC Staphylococcus aureus (GC 3053) ([2]; strain GC 3053): 4 µg/mL (≈ 2.79 µM)
- MIC Staphylococcus aureus (GC 4541) ([2]; strain GC 4541): 8 µg/mL (≈ 5.59 µM)
- MIC Staphylococcus aureus (GC 4542) ([2]; strain GC 4542): 4 µg/mL (≈ 2.79 µM)
- MIC Staphylococcus aureus-SMITH (GC 4543) ([2]; strain GC 4543): 4 µg/mL (≈ 2.79 µM)
- MIC Staphylococcus aureus (GC 4544) ([2]; strain GC 4544): 8 µg/mL (≈ 5.59 µM)
- MIC Staphylococcus aureus (GC 4545) ([2]; strain GC 4545): 4 µg/mL (≈ 2.79 µM)
- MIC Coagulase Negative Staphylococcus (GC 4547) ([2]; strain GC 4547): 4 µg/mL (≈ 2.79 µM)
- MIC Coagulase Negative Staphylococcus (GC 4548) ([2]; strain GC 4548): 4 µg/mL (≈ 2.79 µM)
- MIC Coagulase Negative Staphylococcus (GC 4549) ([2]; strain GC 4549): 4 µg/mL (≈ 2.79 µM)
- MIC Coagulase Negative Staphylococcus (GC 4551) ([2]; strain GC 4551): 4 µg/mL (≈ 2.79 µM)
- MIC Coagulase Negative Staphylococcus (GC 6257) ([2]; strain GC 6257): 4 µg/mL (≈ 2.79 µM)
- MIC Streptococcus agalactiae (GC 4564) ([3]; Streptococcus agalactiae (GC 4564)): 0.12 µg/mL (≈ 0.0838 µM)
- MIC Streptococcus pneumoniae (ATCC 6301) ([3]; Streptococcus pneumoniae (ATCC 6301)): <0.06 µg/mL
- MIC Streptococcus pneumoniae (GC 1894) ([3]; Streptococcus pneumoniae (GC 1894)): <0.06 µg/mL
- MIC Streptococcus pneumoniae (GC 4565) ([3]; Streptococcus pneumoniae (GC 4565)): <0.06 µg/mL
- MIC Streptococcus pyogenes (GC 4563) ([3]; Streptococcus pyogenes (GC 4563)): 0.12 µg/mL (≈ 0.0838 µM)
- MIC Streptococcus agalactiae (GC 4564) [3, 5]: 0.12 µg/mL (≈ 0.0838 µM)
- MIC Streptococcus pneumoniae (ATCC 6301) [3, 5]: <0.06 µg/mL
- MIC Streptococcus pneumoniae (GC 1894) [3, 5]: <0.06 µg/mL
- MIC Streptococcus pneumoniae (GC 4565) [3, 5]: <0.06 µg/mL
- MIC Streptococcus pyogenes (GC 4563) [3, 5]: 0.12 µg/mL (≈ 0.0838 µM)
- MIC Enterococcus avium (GC 4558) ([4]; Enterococcus avium (GC 4558)): 4 µg/mL (≈ 2.79 µM)
- MIC Enterococcus faecalis (ATCC 29212) ([4]; Enterococcus faecalis (ATCC 29212)): 8 µg/mL (≈ 5.59 µM)
- MIC Enterococcus faecalis (GC 2242) ([4]; Enterococcus faecalis (GC 2242)): 8 µg/mL (≈ 5.59 µM)
- MIC Enterococcus faecalis (GC 2691) ([4]; Enterococcus faecalis (GC 2691)): 8 µg/mL (≈ 5.59 µM)
- MIC Enterococcus faecalis (GC 3059) ([4]; Enterococcus faecalis (GC 3059)): 8 µg/mL (≈ 5.59 µM)
- MIC Enterococcus faecalis (GC 4552) ([4]; Enterococcus faecalis (GC 4552)): 8 µg/mL (≈ 5.59 µM)
- MIC Enterococcus faecalis (GC 4553) ([4]; Enterococcus faecalis (GC 4553)): 8 µg/mL (≈ 5.59 µM)
- MIC Enterococcus faecalis (GC 4554) ([4]; Enterococcus faecalis (GC 4554)): 8 µg/mL (≈ 5.59 µM)
- MIC Enterococcus faecalis (GC 6189) ([4]; Enterococcus faecalis (GC 6189)): 8 µg/mL (≈ 5.59 µM)
- MIC Enterococcus faecium (GC 2243) ([4]; Enterococcus faecium (GC 2243)): 8 µg/mL (≈ 5.59 µM)
- MIC Enterococcus faecium (GC 4556) ([4]; Enterococcus faecium (GC 4556)): 8 µg/mL (≈ 5.59 µM)
- MIC Enterococcus faecium (GC 4557) ([4]; Enterococcus faecium (GC 4557)): 8 µg/mL (≈ 5.59 µM)
- MIC Enterococcus avium (GC 4558) [4, 5]: 4 µg/mL (≈ 2.79 µM)
- MIC Enterococcus faecalis (ATCC 29212) [4, 5]: 8 µg/mL (≈ 5.59 µM)
- MIC Enterococcus faecalis (GC 2242) [4, 5]: 8 µg/mL (≈ 5.59 µM)
- MIC Enterococcus faecalis (GC 2691) [4, 5]: 8 µg/mL (≈ 5.59 µM)
- MIC Enterococcus faecalis (GC 3059) [4, 5]: 8 µg/mL (≈ 5.59 µM)
- MIC Enterococcus faecalis (GC 4552) [4, 5]: 8 µg/mL (≈ 5.59 µM)
- MIC Enterococcus faecalis (GC 4553) [4, 5]: 8 µg/mL (≈ 5.59 µM)
- MIC Enterococcus faecalis (GC 4554) [4, 5]: 8 µg/mL (≈ 5.59 µM)
- MIC Enterococcus faecalis (GC 6189) [4, 5]: 8 µg/mL (≈ 5.59 µM)
- MIC Enterococcus faecium (GC 2243) [4, 5]: 8 µg/mL (≈ 5.59 µM)
- MIC Enterococcus faecium (GC 4556) [4, 5]: 8 µg/mL (≈ 5.59 µM)
- MIC Enterococcus faecium (GC 4557) [4, 5]: 8 µg/mL (≈ 5.59 µM)
Structure (SMILES): CC(c1ccccc1)C1NC(=O)CNC(=O)C(CO)NC(=O)C(C(O)C2CNC(=N)N2C2OC(CO)C(O)C(O)C2O)NC(=O)C(C(O)C2CNC(=N)N2)NC(=O)C(Cc2ccc(OC3OC(CO)C(OC4OC5COC6(CCC(C(C)(C)C)CC6)OC5C(O)C4O)C(O)C3O)cc2)NC1=O (stereo not drawn) [Example 208, Cyclo[glycyl-β-methylphenylalanyl-O-[4-O-[4,6-O-(4-tert, butylcyclohexylidene)hexopyranosyl]hexopyranosyl]tyrosyl-3-(2-iminoimidazolidin-4-yl)seryl-3-(3-hexopyranosyl-2-iminoimidazolidin-4-yl)serylseryl]]
- MIC Staphylococcus haemolyticus (GC 4546) ([2]; strain GC 4546): 4 µg/mL (≈ 2.79 µM)

Reference: US8247211B2, “Glycopeptide antibiotics” (American Cyanamid Company, priority 2001, dated 2012)
